The results in this text go back to US20170107207A1, “AMINOPYRAZOLONE DERIVATIVE” (DAIICHI SANKYO COMPANY, LIMITED, priority 2014, published 2017).

The term GI50 denotes the concentration that inhibits growth by half. Read a high GI50 as less potent growth inhibition.

What all share (format): cell-based
For one assay, the system named is MDA-MB-468. Briefly: Cell growth inhibition test, MDA-MB-468. Particulars: Homo sapiens, 72 h; MDA-MB-468, Breast cancer, 3 days, CellTiter-Glo. The protocol: (§1) A cell growth inhibition test was carried out by treating a cultured cancer cell line with a test compound for a given period and then counting the number of viable cells by CellTiter-Glo Luminescent Cell Viability Assay (manufactured by Promega Corp.).
(§2) The following cells were inoculated to a 384-well plate containing the compound prepared in advance at predetermined concentrations. […]
(§3) The cells thus inoculated were cultured at 37° C. for 3 days under 5% CO2. […] Then, luminescence intensity was measured using a plate reader.
(§4) The number of viable cells and luminescence intensity have been confirmed to correlate with each other. Therefore, the rate of cell growth was calculated according to the following expression: Rate of cell growth (T/C %) of a test compound-supplemented well=100×[(B−C)/(A−C)] wherein A represents the luminescence intensity (final culture date) of a test compound-free well; B represents the luminescence intensity (final culture date) of a test compound-containing well; and C represents the luminescence intensity (day of cell inoculation) of a well at the start of contact of the cells with the test compound.
(§5) T/C % at the concentration of each of the serially diluted test compounds was determined. […]

The test system of another assay is U-138 MG. Briefly: Cell growth inhibition test, U-138 MG. As to conditions: Homo sapiens, U138-MG, 72 h, Brain tumor Central Nerve System, 3 days, CellTiter-Glo. The protocol:
as §1, §2, §3, §4, §5
A general note: ATP-based viability assays read luminescence as a measure of living cells.

The test system of the next assay is COLO 205. Briefly: Cell growth inhibition test, COLO 205. Particulars: Homo sapiens, 72 h; COLO 205, Large intestine cancer, 3 days, CellTiter-Glo. The protocol:
as §1, §2, §3, §4, §5

The next assay relates to HT-29. The experiment in a line: Cell growth inhibition test, HT-29. As to conditions: Homo sapiens, 72 h; HT-29, Large intestine cancer, 3 days, CellTiter-Glo. The protocol:
as §1, §2, §3, §4, §5

A further assay concerns AN3CA. Briefly: Cell growth inhibition test, AN3CA. As to conditions: Homo sapiens, AN3-CA, 72 h, Endometrial cancer, 3 days, CellTiter-Glo. The procedure:
as §1, §2, §3, §4, §5

A further assay concerns SNU-1. Briefly: Cell growth inhibition test, SNU-1. As to conditions: Homo sapiens, SNU1, 72 h; SNU-1, Stomach cancer, 3 days, CellTiter-Glo. The procedure:
as §1, §2, §3, §4, §5

A further assay has as its system NCI-N87. The experiment in a line: Cell growth inhibition test, NCI-N87. As to conditions: Homo sapiens, 72 h; NCI-N87, Stomach cancer, 3 days, CellTiter-Glo. The procedure: as §1, §2, §3, §4, §5
The test system of a further assay is FaDu. Briefly: Cell growth inhibition test, FaDu. Particulars: Homo sapiens, 72 h, Head and neck cancer, 3 days, CellTiter-Glo. The procedure: as §1, §2, §3, §4, §5
For a further assay, the system named is A-498. Briefly: Cell growth inhibition test, A-498. Particulars: Homo sapiens, A498, 72 h; A-498, Kidney cancer, 3 days, CellTiter-Glo. The procedure:
as §1, §2, §3, §4, §5

The next assay deals with MOLT-3. Briefly: Cell growth inhibition test, MOLT-3. As to conditions: Homo sapiens, 72 h; MOLT-3, Leukemia, 3 days, CellTiter-Glo. The protocol:
as §1, §2, §3, §4, §5

In a further assay the test system is MOLT-4. Briefly: Cell growth inhibition test, MOLT-4. Particulars: Homo sapiens, 72 h; MOLT-4, Leukemia, 3 days, CellTiter-Glo. The protocol:
as §1, §2, §3, §4, §5

A further assay relates to RPMI 8226. Briefly: Cell growth inhibition test, RPMI 8226. As to conditions: Homo sapiens, 72 h; RPMI 8226, Multiple myeloma, 3 days, CellTiter-Glo. The procedure:
as §1, §2, §3, §4, §5

In another assay the test system is RAMOS. The experiment in a line: Cell growth inhibition test, RAMOS. Particulars: Homo sapiens, 72 h, Lymphoma, 3 days, CellTiter-Glo. The protocol: as §1, §2, §3, §4, §5
The subject of another assay is OCI-LY7. Briefly: Cell growth inhibition test, OCI-LY7. As to conditions: Homo sapiens, 72 h; OCI-LY7, Lymphoma, 3 days, CellTiter-Glo. The protocol: as §1, §2, §3, §4, §5
The test system of another assay is DMS 273. Briefly: Cell growth inhibition test, DMS 273. Particulars: Homo sapiens, 72 h; DMS 273, Lung cancer, 3 days, CellTiter-Glo. The procedure:
as §1, §2, §3, §4, §5

Another assay deals with CAPAN-2. The experiment in a line: Cell growth inhibition test, CAPAN-2. Particulars: Homo sapiens, 72 h; CAPAN-2, Pancreatic cancer, 3 days, CellTiter-Glo. The procedure:
as §1, §2, §3, §4, §5

The test system of a further assay is PC-3. Briefly: Cell growth inhibition test, PC-3. As to conditions: Homo sapiens, 72 h; PC-3, Prostate cancer, 3 days, CellTiter-Glo. The procedure: as §1, §2, §3, §4, §5
The next assay has as its system A-431. Briefly: Cell growth inhibition test, A-431. Particulars: Homo sapiens, 72 h; A-431, Skin cancer, 3 days, CellTiter-Glo. The protocol:
as §1, §2, §3, §4, §5

Another assay deals with HT-1080. Briefly: Cell growth inhibition test, HT-1080. Particulars: Homo sapiens, 72 h; HT-1080, Bone and soft tissue tumor, 3 days, CellTiter-Glo. The protocol: as §1, §2, §3, §4, §5

With `CCOc1ccc(Cl)cc1C(=O)NCC(C)(C)CC(=O)Nc1c([C@H](C)CN(C)C)n(C)n(-c2ccccc2)c1=O` [Example 68, 5-Chloro-N-[4-({5-[(1R)-2-(dimethylamino)-1-methylethyl]-1-methyl-3-oxo-2-phenyl-2,3-dihydro-1H-pyrazol-4-yl}amino)-2,2-dimethyl-4-oxobutyl]-2-ethoxybenzamide], the GI50 in the assay on MDA-MB-468 was 170 nM; in the assay with U-138 MG, 670 nM; in the assay with COLO 205 it was 310 nM; with HT-29, 510 nM; in the assay with AN3CA it was 740 nM; with SNU-1 it was 230 nM. The GI50 with NCI-N87 came to 270 nM; in the assay on FaDu, 210 nM; with A-498 it was 540 nM; in the assay on MOLT-3, 110 nM; in the assay on MOLT-4 it was 130 nM; in the assay with RPMI 8226, 140 nM. For the same compound, the concentration for 50% growth inhibition (GI50) with RAMOS stood at 130 nM; with OCI-LY7, 130 nM; with DMS 273, 310 nM; with CAPAN-2 it was 640 nM; with PC-3 it was 1400 nM; in the assay with A-431, 210 nM. Besides, the 50% growth inhibitory concentration (GI50) with HT-1080 was 220 nM.
In the case of `CCOc1cc(F)c(Cl)cc1C(=O)NCC(C)(C)CC(=O)Nc1c(COC)n(C)n(-c2ccccc2)c1=O` [Example 113, 5-Chloro-2-ethoxy-4-fluoro-N-(4-{[5-(methoxymethyl)-1-methyl-3-oxo-2-phenyl-2,3-dihydro-1H-pyrazol-4-yl]amino}-2,2-dimethyl-4-oxobutyl)benzamide], the GI50 with MDA-MB-468 amounted to 320 nM; in the assay with U-138 MG, 1000 nM; in the assay with COLO 205 it was 720 nM; with HT-29, 920 nM; with AN3CA, 1400 nM; with SNU-1 it was 580 nM. Further, the GI50 amounted to 530 nM in the assay with NCI-N87; 350 nM with FaDu; 430 nM in the assay on A-498; 150 nM with MOLT-3; 160 nM in the assay on MOLT-4; 160 nM in the assay on RPMI 8226. Further, the GI50 in the assay on RAMOS came out at 160 nM; with OCI-LY7 it was 150 nM; in the assay with DMS 273, 540 nM; in the assay on CAPAN-2 it was 750 nM; with PC-3, 1400 nM; in the assay on A-431 it was 390 nM. In addition, growth in the assay on HT-1080 was halved (GI50) at 350 nM.
With `CCOc1ncc(Cl)cc1C(=O)NCC(C)(C)CC(=O)Nc1c([C@H](C)CN(C)C)n(C)n(-c2ccccc2)c1=O` [Example 73, 5-Chloro-N-[4-({5-[(1R)-2-(dimethylamino)-1-methylethyl]-1-methyl-3-oxo-2-phenyl-2,3-dihydro-1H-pyrazol-4-yl}amino)-2,2-dimethyl-4-oxobutyl]-2-ethoxypyridine-3-carboxamide], the 50% growth inhibitory concentration (GI50) with MDA-MB-468 came out at 510 nM; with U-138 MG it was 1000 nM; in the assay with COLO 205, 850 nM; in the assay with HT-29 it was 1200 nM; in the assay on AN3CA it was 2200 nM; with SNU-1, 710 nM. Also, the GI50 in the assay on NCI-N87 was determined as 660 nM; in the assay on FaDu, 460 nM; in the assay on A-498, 940 nM; in the assay with MOLT-3 it was 190 nM; with MOLT-4, 180 nM; with RPMI 8226, 180 nM. Further, the GI50 was determined as 220 nM in the assay on RAMOS; 370 nM in the assay on OCI-LY7; 780 nM in the assay on DMS 273; 980 nM in the assay with CAPAN-2; 1500 nM in the assay on PC-3; 540 nM with A-431. The same compound came in with a GI50 with HT-1080 of 520 nM.
